Tests used:
[1] = biological target: T1, human SGLT2 (Homo sapiens, UniProt P31639); test: Assay for inhibitory effects on human SGLT2 activity (uptake of methyl-α-D-glucopyranoside in CS2-5E cells); type: cell-based; details: CHO-K1 cells stably expressing human SGLT2 (CS2-5E), 1 mM 14C-α-MG uptake, 37° C., 1 hour
T1 construct: expressed in transfected cells
T1 sequence (P31639 1-672): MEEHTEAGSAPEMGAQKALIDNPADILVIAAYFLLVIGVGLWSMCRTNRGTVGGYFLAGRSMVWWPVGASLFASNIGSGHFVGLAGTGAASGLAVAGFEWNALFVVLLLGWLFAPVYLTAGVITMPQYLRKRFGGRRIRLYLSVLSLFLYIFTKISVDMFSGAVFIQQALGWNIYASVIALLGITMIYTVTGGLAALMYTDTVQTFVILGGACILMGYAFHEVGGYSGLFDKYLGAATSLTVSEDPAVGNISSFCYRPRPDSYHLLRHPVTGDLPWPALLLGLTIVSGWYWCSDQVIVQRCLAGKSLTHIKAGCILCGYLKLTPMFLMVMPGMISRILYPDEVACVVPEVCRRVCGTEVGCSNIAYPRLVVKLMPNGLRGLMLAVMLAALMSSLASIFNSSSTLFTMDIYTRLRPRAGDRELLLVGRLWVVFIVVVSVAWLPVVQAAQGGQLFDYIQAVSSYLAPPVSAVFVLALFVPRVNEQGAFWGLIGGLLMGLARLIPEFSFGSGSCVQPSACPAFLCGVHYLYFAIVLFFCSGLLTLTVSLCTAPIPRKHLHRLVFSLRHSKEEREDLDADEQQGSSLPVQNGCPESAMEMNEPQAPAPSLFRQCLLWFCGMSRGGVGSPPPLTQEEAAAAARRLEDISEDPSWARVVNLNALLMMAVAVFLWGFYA
Method: Assay for Inhibitory Effects on Human SGLT2 Activity 1) Cloning and Construction of the Vector Expressing Human SGLT2 The cDNA library was prepared for PCR amplification by reverse transcription from total RNA deprived from human kidney (Ori gene) using oligo-dT as a primer. Using this cDNA library as a template, the DNA fragment coding 2 to 2039 bp of human SGLT2 (ACCESSION: M95549, M95299), which was reported by R. G. Wells et al., was amplified by PCR method and inserted into the multi-cloning site of pcDNA3.1 (−) (Invitrogen). The DNA sequence inserted was perfectly matched to the previously reported sequence. 2) Establishment of Cell Line Stably Expressing Human SGLT2 The expression vector of human SGLT2 was digested by Sca I into a linear DNA. The linear DNA was transfected into CHO-K1 cells by means of lipofection (Effectene Transfection Reagent: QIAGEN). Neomycin resistant cell lines were selected by culture in the medium containing G418 (1 mg/mL, LIFE TECHNOLOGIES), and then the activity against the uptake of methyl-α-D-glucopyranoside was measured by the method described below. […] CS2-5E cells were cultured in the presence of G418 at 200 μg/mL. 3) Measurement of the Inhibitory Activity Against the Uptake of Methyl-α-D-glucopyranoside (α-MG) CS2-5E cells were seeded into a 96-well culture plate at a density of 3×10^4 cells/well and cultured for 2 days, and were used in the uptake assay. A mixture of non-labeled (Sigma) and ^14C-labeled α-MG (Amersham Pharmacia Biotech) was added to the uptake buffer (pH 7.4; containing 140 mM sodium chloride, 2 mM potassium chloride, 1 mM calcium chloride, 1 mM magnesium chloride, […] and 5 mM tris(hydroxymethyl)aminomethane) at the final concentration of 1 mM. […] Radioactivity was measured by means of micro-scintillation counter TopCount (Packard). One hundred % was set to the difference between the uptake in the control group and the basal uptake, and the uptake of methyl α-D-glucopyranoside at each drug concentration were calculated. […]

[2] = biological target: T2, human SGLT1 (Homo sapiens, UniProt P13866); test: Assay for inhibitory effects on human SGLT1 activity (uptake of methyl-α-D-glucopyranoside in CS1-5-11D cells); type: cell-based; details: CHO-K1 cells stably expressing human SGLT1 (CS1-5-11D), 1 mM 14C-α-MG uptake, 37° C., 1 hour
T2 construct: expressed in transfected cells
T2 sequence (P13866 1-664): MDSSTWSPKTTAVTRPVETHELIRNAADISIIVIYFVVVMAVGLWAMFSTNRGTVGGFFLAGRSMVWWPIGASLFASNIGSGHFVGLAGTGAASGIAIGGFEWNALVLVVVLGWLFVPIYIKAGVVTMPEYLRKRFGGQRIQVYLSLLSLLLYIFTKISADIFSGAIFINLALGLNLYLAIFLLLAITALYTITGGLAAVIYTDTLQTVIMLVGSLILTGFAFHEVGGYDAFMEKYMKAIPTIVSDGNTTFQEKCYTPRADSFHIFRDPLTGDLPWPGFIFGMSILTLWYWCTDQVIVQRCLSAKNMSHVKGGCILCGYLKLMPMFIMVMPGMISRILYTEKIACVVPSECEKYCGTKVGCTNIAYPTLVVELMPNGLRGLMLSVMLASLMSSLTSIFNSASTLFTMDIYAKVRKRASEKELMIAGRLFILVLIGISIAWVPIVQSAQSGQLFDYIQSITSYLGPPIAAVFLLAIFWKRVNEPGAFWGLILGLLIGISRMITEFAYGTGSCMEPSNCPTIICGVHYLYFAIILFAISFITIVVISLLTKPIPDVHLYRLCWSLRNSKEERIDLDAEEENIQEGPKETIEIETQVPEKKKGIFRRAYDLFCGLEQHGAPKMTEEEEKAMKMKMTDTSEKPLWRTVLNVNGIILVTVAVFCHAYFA
Method: Assay for Inhibitory Effects on Human SGLT1 Activity
1) Cloning and Construction of the Vector Expressing Human SGLT1
The cDNA library was prepared for PCR amplification by reverse transcription from total RNA deprived from human small intestine (Ori gene) using oligo-dT as a primer. Using this cDNA library as a template, the DNA fragment coding 1 to 2005 bp of human SGLT1 (ACCESSION: M24847), which was reported by Hediger et al., was amplified by PCR method and inserted into the multi-cloning site of pcDNA3.1 (−) (Invitrogen). The DNA sequence inserted was perfectly matched to the previously reported sequence.
2) Establishment of Cell Line Stably Expressing Human SGLT1
The expression vector of human SGLT1 was digested by Sca I into a linear DNA. The linear DNA was transfected into CHO-K1 cells by means of lipofection (Effectene Transfection Reagent: QIAGEN). Neomycin resistant cell lines were selected by culture in the medium containing G418 (1 mg/mL, LIFE TECHNOLOGIES), and then the activity against the uptake of methyl-α-D-glucopyranoside was measured by the method described below. […] CS1-5-11D cells were cultured in the presence of G418 at 200 μg/mL. […]
CS1-5-11D cells were seeded into a 96-well culture plate at a density of 3×10^4 cells/well and cultured for 2 days, and were used in the uptake assay. […] Radioactivity was measured by means of micro-scintillation counter TopCount (Packard). […]

Row | Structure (SMILES) | IC50 [1] | IC50 [2]
1 | Cc1ccc(Cc2cccc3cc([C@@H]4O[C@H](CO)[C@@H](O)[C@H](O)[C@H]4O)sc23)cc1 [Example 3, 2-(β-D-Glucopyranosyl)-7-(4-methylbenzyl)benzo[b]thiophene] | 2 nM | –
2 | OC[C@H]1O[C@@H](c2cc3cccc(CCc4ccccc4)c3s2)[C@H](O)[C@@H](O)[C@@H]1O [Example 2, 2-(β-D-Glucopyranosyl)-7-(2-phenylethyl)benzo[b]thiophene] | 130 nM | –
3 | OC[C@H]1O[C@@H](c2cc3c(CCc4ccccc4)cccc3s2)[C@H](O)[C@@H](O)[C@@H]1O [Example 1, 2-(β-D-Glucopyranosyl)-4-(2-phenylethyl)benzo[b]thiophene] | 58 nM | 220 nM

Reference: patent publication US7732596B2, “Fused heterocycle derivative, medicinal composition containing the same, and medicinal use thereof” (Kissei Pharmaceutical Co., Ltd., priority 2004, dated 2010)
